Laboratory results as given in US7517902B2, “Substituted indazoles, compositions containing the same, and the preparation and use thereof” (Aventis Pharma S.A., priority 2004, dated 2009).
pIC50: −log10 of the molar value. Counter-ions that a name gives are not always drawn.

How the values were obtained:
Assay type in all cases: biochemical
human Tie2 = biological target: T1, human Tie2 (Homo sapiens, UniProt Q02763); test: Tie2 assay of PLC phosphorylation (FlashPlate); details: read-out: IC 50 TIE2
T1 construct: amino acids of the intracellular domain 776-1124; made in house
T1 sequence (Q02763 776-1124): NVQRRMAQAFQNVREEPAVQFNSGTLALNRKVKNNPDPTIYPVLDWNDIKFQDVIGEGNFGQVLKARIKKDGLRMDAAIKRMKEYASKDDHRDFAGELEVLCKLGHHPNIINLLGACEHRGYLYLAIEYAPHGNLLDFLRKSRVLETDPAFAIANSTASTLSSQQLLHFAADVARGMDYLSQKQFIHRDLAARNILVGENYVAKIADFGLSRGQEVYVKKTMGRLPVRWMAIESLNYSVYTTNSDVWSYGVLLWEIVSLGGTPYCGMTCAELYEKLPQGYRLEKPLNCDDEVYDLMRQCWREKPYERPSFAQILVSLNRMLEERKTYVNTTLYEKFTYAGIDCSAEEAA
Description: The coding sequence of human Tie2, corresponding to the amino acids of the intracellular domain 776-1124, was generated by PCR, using the cDNA isolated from human placenta as a model. This sequence was introduced into a baculovirus expression vector pFastBacGT in the form of a GST fusion protein.
The inhibitory effect of the molecules is determined in an assay of PLC phosphorylation by Tie2 in the presence of GST-Tie2 purified to approximately 80% homogeneity. The substrate is composed of the SH2-SH3 fragments of PLC expressed in the form of a GST fusion protein.
The kinase activity of Tie2 is measured in a 20 mM MOPS buffer, pH 7.2, containing 10 mM MgCl2, 10 mM MnCl2, 1 mM DTT, 10 mM of glycerol-phosphate. In a 96-well FlashPlate plate, kept on ice, a reaction mixture is deposited which is composed of 70 μl of kinase buffer containing 100 ng of GST-Tie2 enzyme per well. Subsequently 10 μl of the test molecule diluted to a concentration of 10% maximum in DMvSO are added. For a given concentration, each measurement is carried out in quadruplicate. The reaction is initiated by adding 20 μl of solution containing 2 μg of GST-PLC, 2 μM of cold ATP and 1 μCi of ^33P[ATP]. After 1 hour of incubation at 37° C., the reaction is terminated by adding 1 volume (100 μl) of 200 mM EDTA. Following removal of the incubation buffer, the wells are washed three times with 300 μl of PBS. The radioactivity is measured on a Wallac MicroBeta 1450.
The inhibition of Tie2 activity is calculated and expressed as a percentage inhibition relative to the control activity determined in the absence of compound.

human KDR enzyme = biological target: T2, human KDR enzyme (Homo sapiens, UniProt P35968); test: KDR substrate phosphorylation assay (scintillation, 96-well plate)
T2 construct: The cytoplasmic domain of the human KDR enzyme was cloned in the form of a GST fusion; GST; made in house; host or cells: SF21 insect cells (baculovirus, pFastBac)
T2 sequence (P35968 786-1356 limits assumed): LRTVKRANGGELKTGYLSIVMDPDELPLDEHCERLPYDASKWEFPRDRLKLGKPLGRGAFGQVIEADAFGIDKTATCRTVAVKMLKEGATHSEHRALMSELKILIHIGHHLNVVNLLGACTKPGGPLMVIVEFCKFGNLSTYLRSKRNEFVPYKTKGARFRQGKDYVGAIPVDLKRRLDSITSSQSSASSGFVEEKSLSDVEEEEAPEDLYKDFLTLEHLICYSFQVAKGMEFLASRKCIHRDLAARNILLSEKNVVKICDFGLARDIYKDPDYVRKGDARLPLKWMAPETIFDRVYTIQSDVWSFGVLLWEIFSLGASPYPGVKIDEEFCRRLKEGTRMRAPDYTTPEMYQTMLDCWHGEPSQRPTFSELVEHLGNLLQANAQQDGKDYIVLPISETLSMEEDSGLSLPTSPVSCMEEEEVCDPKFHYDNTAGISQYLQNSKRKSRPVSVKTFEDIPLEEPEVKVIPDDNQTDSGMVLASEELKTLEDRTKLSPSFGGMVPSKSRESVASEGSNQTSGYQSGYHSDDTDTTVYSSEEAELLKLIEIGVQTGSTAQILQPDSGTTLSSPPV
Description: The inhibitory effect of the compounds is determined in an assay of substrate phosphorylation by the KDR enzyme in vitro using a scintillation technique (96-well plate, NEN).
The cytoplasmic domain of the human KDR enzyme was cloned in the form of a GST fusion into the baculovirus expression vector pFastBac. The protein was expressed in SF21 cells and purified to approximately 60% homogeneity.
The KDR kinase activity is measured in 20 mM MOPS, 10 mM MgCl2, 10 mM MnCl2, 1 mM DTT, 2.5 mM EGTA, 10 mM β-glycerophosphate, pH=7.2, in the presence of 10 mM MgCl2, 100 μM Na3VO4, 1 mM NaF. 10 μl of the compound are added to 70 μl of kinase buffer, containing 100 ng of KDR enzyme at 4° C. The reaction is triggered by adding 20 μl of solution containing 2 μg of substrate (SH2-SH3 fragment of PLCγ expressed in the form of a GST fusion protein), 2 μCi γ^33P[ATP] and 2 μM cold ATP. After 1 hour of incubation at 37° C., the reaction is stopped by adding 1 volume (100 μl) of 200 mM EDTA. The incubation buffer is withdrawn and the wells are washed three times with 300 μl of PBS. The radioactivity is measured in each well using a Top Count NXT radioactivity counter (Packard).
The background noise is determined by measuring the radioactivity in four different wells containing the radioactive ATP and the substrate alone.
A control for total activity is measured in four different wells containing all of the reagents (γ^33P-[ATP], KDR and PLCγ substrate), but in the absence of compound.
The inhibition of KDR activity with the compound of the invention is expressed in percentage inhibition of the control activity determined in the absence of compound.
The compound SU5614 (Calbiochem) (1 μM) is included in each plate as an inhibition control.

Aurora2 = biological target: T3, Aurora2 (Homo sapiens, UniProt O14965); test: Aurora2 enzyme assay, NuMA substrate phosphorylation (Flashplate); details: read-out: IC 50 Aurora2
T3 construct: Aurora 2: whole recombinant protein comprising an N-terminal histidine tail; His tag (histidine tail) (N); made in house; host or cells: E. coli
T3 sequence (O14965 1-403): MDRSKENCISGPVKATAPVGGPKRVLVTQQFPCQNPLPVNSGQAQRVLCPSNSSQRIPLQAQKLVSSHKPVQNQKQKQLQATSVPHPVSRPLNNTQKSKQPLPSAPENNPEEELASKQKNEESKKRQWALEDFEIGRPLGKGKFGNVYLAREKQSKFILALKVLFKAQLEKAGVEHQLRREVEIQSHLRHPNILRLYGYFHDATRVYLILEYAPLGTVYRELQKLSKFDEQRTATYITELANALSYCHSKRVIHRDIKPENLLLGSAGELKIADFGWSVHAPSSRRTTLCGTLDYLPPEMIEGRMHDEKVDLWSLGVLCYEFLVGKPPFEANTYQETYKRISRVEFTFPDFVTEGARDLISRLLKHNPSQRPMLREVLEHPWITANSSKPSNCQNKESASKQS
Description: The inhibitory effect of compounds with respect to the kinases Aurora1 and Aurora2 is determined by an enzyme assay employing radioactivity detection.
The kinase activity of Aurora 1 and Aurora 2 is evaluated by the phosphorylation of the substrate Numa-histidine in the presence of radiolabeled ATP ([^33P]ATP), using 96-well Flashplate plates in which nickel chelate is fixed to the surface of the microplate. The amount of ^33P phosphate incorporated in the NuMA substrate is proportional to the activity of the enzyme Aurora1 or Aurora2.
The proteins are produced in the protein production laboratory of the SanofiAventis group.
Aurora 2: whole recombinant protein comprising an N-terminal histidine tail, expressed in E. coli and purified to more than 82%.
NuMA (nuclear protein that associates with the mitotic apparatus) fragment of 424 amino acids, expressed in E. coli, whose N-terminal end has been labeled with histidine and used as a substrate for the two Aurora enzymes.
The microplates used are 96-well Flash-Plate plates with nickel chelate (Perkin Elmer, model SMP107).
The products for evaluation are incubated in a reaction volume of 100 μL per well in the presence of 10 nM of Aurora 1 or Aurora 2, 500 nM of NuMA substrate in a buffer composed of 50 mM of Tris/HCl (pH 7.5), 50 mM NaCl, 5 mM MgCl2 (Aurora-B) or 10 mM MgCl2 (Aurora-A) and 1 mM of DTT, at 37° C.
In each well, 80 μL of the enzyme/substrate incubation buffer are distributed, followed by 10 μL of the product to be evaluated, in variable concentrations. The reaction is initiated by adding 1 μM of final ATP containing 0.2 μCi of [^33P]ATP (10 μL). After 30 minutes of incubation, the reaction is terminated by simply removing the reaction buffer and each well is washed twice with 300 μl of the Tris/HCl buffer. The radioactivity is then measured in each well by means of a scintillation apparatus, Packard, Top count model.
The control enzyme activity of Aurora is expressed by the number of counts per minute obtained within 30 minutes, after deduction of the background noise (reaction mixture not containing the enzyme). The evaluation of the various test products is expressed in percentage inhibition of the Aurora activity relative to the control.

SMILES	pIC50 (human Tie2)	pIC50 (human KDR enzyme)	pIC50 (Aurora2)
O=C(Nc1ccc(-c2ccc3c(NC(=O)c4ccsc4)n[nH]c3c2F)cc1)Nc1ccccc1F [Example 14, 1-(4-{7-Fluoro-3-[(thiophen-3-yl)carbonylamino]-1H-indazol-6-yl}phenyl)-3-(2-fluorophenyl)urea]	7.30	5.38	7.64
Nc1ccc(-c2ccc3c(NC(=O)c4ccsc4)n[nH]c3c2F)cc1 [Example 4, 6-(4-Aminophenyl)-7-fluoro-3-[(thiophen-3-yl)carbonylamino]-1H-indazole hydrochloride]	6.10	6.79	6.33
Nc1n[nH]c2c(F)c(-c3ccc(NC(=O)Nc4cc(C(F)(F)F)ccc4F)cc3)ccc12 [Example 7, 1-[4-(3-Amino-7-fluoro-1H-indazol-6-yl)phenyl]-3-(2-fluoro-5-trifluoro-methylphenyl)urea hydrochloride]	7.29	6.91	6.76
Nc1n[nH]c2c(F)c(-c3ccc(NC(=O)Nc4ccccc4)cc3)ccc12 [Example 20, 1-[4-(3-Amino-7-fluoro-1H-indazol-6-yl)phenyl]-3-phenylurea]	6.30		7.20
O=C(Nc1ccc(-c2c(F)c(F)c3c(NC(=O)c4ccsc4)n[nH]c3c2F)cc1)Nc1cc(C(F)(F)F)ccc1F [Example 9, 1-(4-{4,5,7-Trifluoro-3-[(thiophen-3-yl)carbonylamino]-1H-indazol-6-yl}-phenyl)-3-(2-fluoro-5-trifluoromethylphenyl)urea]	7.34	6.16	5.76
CC(=O)Nc1n[nH]c2c(F)c(-c3ccc(NC(=O)Nc4cc(C(F)(F)F)ccc4F)cc3)ccc12 [Example 27, 1-(4-{7-Fluoro-3-acetylamino-1H-indazol-6-yl}phenyl)-3-(2-fluoro-5-trifluoromethylphenyl)urea]	6.84	7.10	6.47
CC(C)(C)c1cc(NC(=O)Nc2ccc(-c3ccc4c(NC(=O)c5ccsc5)n[nH]c4c3F)cc2)no1 [Example 13, 1-(4-{7-Fluoro-3-[(thiophen-3-yl)carbonylamino]-1H-indazol-6-yl}phenyl)-3-(5-tert-butylisoxazol-3-yl)urea]	7.51	7.54	7.19
CC(C)(C)c1cc(NC(=O)Nc2ccc(-c3ccc4c(N)n[nH]c4c3F)cc2)no1 [Example 21, 1-[4-(3-Amino-7-fluoro-1H-indazol-6-yl)phenyl]-3-(5-tert-butylisoxazol-3-yl)urea]	6.76	7.07	7.17
O=C(Nc1ccc(-c2ccc3c(NC(=O)c4ccsc4)n[nH]c3c2F)cc1)Nc1cc(C(F)(F)F)ccc1F [Example 6, 1-(4-{7-Fluoro-3-[(thiophen-3-yl)carbonylamino]-1H-indazol-6-yl}phenyl)-3-(2-fluoro-5-trifluoromethylphenyl)urea]	8.05	8.10	7.44
O=C(Nc1ccc(-c2ccc3c(NC(=O)c4ccsc4)n[nH]c3c2F)cn1)Nc1cc(C(F)(F)F)ccc1F [Example 24, 1-(5-{7-Fluoro-3-[(thiophen-3-yl)carbonylamino]-1H-indazol-6-yl}pyridin-2-yl)-3-(2-fluoro-5-trifluoromethylphenyl)urea]	6.64		
O=C(Nc1ccc(-c2ccc3c(NC(=O)c4ccsc4)n[nH]c3c2F)cc1)Nc1cccc(C(F)(F)F)c1 [Example 15, 1-(4-{7-Fluoro-3-[(thiophen-3-yl)carbonylamino]-1H-indazol-6-yl}phenyl)-3-(5-trifluoromethylphenyl)urea]	7.70	7.40	7.55
Cc1ccc(-n2nc(C(C)(C)C)cc2NC(=O)Nc2ccc(-c3ccc4c(N)n[nH]c4c3F)cc2)cc1 [Example 25, 1-[4-(3-Amino-7-fluoro-1H-indazol-6-yl)phenyl]-3-(5-tert-butyl-2-p-tolyl-2H-pyrazol-3-yl)urea]	7.77	7.96	7.03
Cc1cc(-c2ccc3c(NC(=O)c4ccsc4)n[nH]c3c2F)ccc1NC(=O)Nc1cc(C(F)(F)F)ccc1F [Example 23, 1-(4-{7-Fluoro-3-[(thiophen-3-yl)carbonylamino]-1H-indazol-6-yl}-2-methylphenyl)-3-(2-fluoro-5-trifluoromethylphenyl)urea]	7.80	7.82	6.53
O=CNc1n[nH]c2c(F)c(-c3ccc(NC(=O)Nc4cc(C(F)(F)F)ccc4F)cc3)ccc12 [Example 28, 1-(4-(7-Fluoro-3-formylamino-1H-indazol-6-yl}phenyl)-3-(2-fluoro-5-tri-fluoromethylphenyl)urea]	6.75	6.79	6.28
Nc1n[nH]c2cc(-c3ccc(NC(=O)Nc4cc(C(F)(F)F)ccc4F)cc3)ccc12 [Example 1, 1-[4-(3-Amino-1H-indazol-6-yl)phenyl]-3-(2-fluoro-5-trifluoromethylphenyl)urea hydrochloride]	5.75	7.48	6.95
